# Literature values as cited in patent US6951654B2, “Intravaginal drug delivery devices for the administration of an antimicrobial agent” (Galen (Chemicals) Limited, priority 2001, dated 2005).
# Settings: at 20° C.; Merck Index
smiles,measurement,value
"Cc1ncc([N+](=O)[O-])n1CCO [metronidazole, 2-methyl-5-nitro-1H-imidazole-1-ethanol]",solubility in water,1 g per 100 ml
